Structure (SMILES) | melting point
COc1ccc(NC(=O)c2csc(Nc3ccc(C)cn3)n2)cc1OC | 212 to 214 °C
CC(C)N=C1C(c2ccccc2)=C(c2ccccc2)C(c2ccccc2)=C1c1ccccc1 | 223 °C
CC(C)(C)OC(=O)N(C(=O)OC(C)(C)C)c1cc(-c2ccc(N)cc2)n(C(=O)OC(C)(C)C)n1 | 84 to 85 °C
O=C(N1CCc2ccc(Cl)c(O)c2CC1)C(F)(F)F | 133 to 134 °C
O=C(O)CC1=CCCCC1n1nc(-c2c(-c3ccccc3)nn3ccccc23)ccc1=O (stereo unspecified) | 164 to 166 °C
c1cn(CCC23CC4CC(CC(C4)C2)C3)cn1 | 64 to 65 °C
CCCCC1SCC(C(=O)OC(C)(C)C)N1C(=O)CNC(=O)NCC(C(=O)O)c1ccccc1 (stereo unspecified) | 102 °C
COc1cc2nc(CO)c(CO)c(-c3ccnc(NN)c3)c2cc1OC | 225 to 227 °C
CCOC(=O)c1cc2c(cn1)[nH]c1ccc(N3CCCC3)cc12 | 259 to 261 °C
COc1cc(O)c2c(c1)CC(C(=O)Nc1ccc(CC3SC(=O)NC3=O)cc1)SCC2=O (stereo unspecified) | 131 to 134 °C
COc1cccc2c(=O)n3c(C)c(Br)sc3nc12 | 198 to 199 °C
Cc1cc(C)cc(Sc2c(C(C)C)c(=O)[nH]c(=O)n2CC2=CCC(CO)C2)c1 (stereo unspecified) | 147 to 148 °C
COc1cc(CNC(=O)c2nc3scc(COc4ccc(C(=O)O)cc4)c3c(=O)[nH]2)ccc1F | 276 to 281 °C
O=C(O)c1cn(C2CC2)c2nc(O)c(F)cc2c1=O | 325 to 327 °C
CCN(CC)c1ccc(/C=C/c2ccccc2F)cc1 | 78 to 79 °C
O=C1NC(c2ccccc2)(c2ccccc2)C(=O)N1CCl | 161 to 162 °C
COC(=O)c1cc(Br)n2c1CN(C(=O)OC(C)(C)C)CC2 | 109 °C
CCOC(=O)COc1cc2c(c(Cl)c1Cl)C(=O)C(CC)C2 (stereo unspecified) | 116 to 118 °C
CC1(C)CCCN(C(=O)CN2C(=O)C(NC(=O)Nc3cccc(C(=O)OC(C)(C)C)c3)C(=O)N(c3ccccc3F)c3ccccc32)C1 (stereo unspecified) | 170 °C
Cc1c(C(=O)NC2(C(=O)O)Cc3cccc(Br)c3C2)oc2cc(-c3ccc(Cl)cc3)ccc12 (stereo unspecified) | 230 °C
CCCCc1c(C(=O)OCC)[nH]c2cccc(SC)c2c1=O | 80 °C
CCOC(=O)CC(NCc1ccccc1)=C(C(C)=O)C(=O)OCC | 87 to 88 °C
CCCCN(CCCC)C(=O)CC1C(=O)N(c2ccc(Cl)cc2)C(=O)N1c1ccc(Cl)cc1 (stereo unspecified) | 124 °C
COC(=O)CCCCCNC(=O)C(CSC(C)=O)Cc1ccccc1 (stereo unspecified) | 50 to 54 °C
Cn1c(=O)c2c(ncn2CCCCCCl)n(C)c1=O | 78 to 80 °C
O=C(c1cccs1)N1CCN(c2c([N+](=O)[O-])c(=O)n(Cc3ccccc3)c3ncccc23)CC1 | 255 °C

Structure (SMILES) | melting point
S=[PH](c1ccccc1)c1ccccc1 | 134 to 135 °C
Cc1cccc(C)c1NC(=O)N1CC(C)(C)NC1=S | 242 to 243 °C
CC(C)(C)Nc1c(NCc2cc3cc(C#N)ccc3o2)c(=O)c1=O | 299 to 300 °C
CC(O)c1ccccc1N (stereo unspecified) | 50 to 52 °C
CN(Cc1ccccc1)c1nccc2ccccc12 | 53.5 to 54.5 °C
COC(=O)C#CC(=O)c1cccc(Cl)c1 | 73 to 75 °C
CC(=O)NC1CCN(c2ccccn2)CC1 | 165 to 168 °C
CC(=CC(=O)O)c1ccc([N+](=O)[O-])cc1 | 167 to 169 °C
CCCc1cc2c(=O)cc(C(=O)O)[nH]c2cc1OCCCOc1c(CCC)cc(C(C)=O)c(O)c1CCC | 128 to 131 °C
O=C1CCc2nc(-c3ccccc3)ccc21 | 177 to 178 °C
CC(O)(CCC#N)c1ccc(Oc2cccc(Cl)c2)cc1 (stereo unspecified) | 68 to 70 °C
CC(C)=C1OC(=O)N(c2cc(OC3CCCC3)c(Cl)cc2F)C1=N | 131 to 133 °C
CP(C)(=O)C1CC(c2ccccc2)=NO1 (stereo unspecified) | 153 °C
O=C(c1cccc(OCc2ccccc2)c1)C(CCc1nnn[nH]1)c1ccccc1 (stereo unspecified) | 136 to 138 °C
CC(C(N)=O)c1ccc2c(c1)C(=O)Cc1ccc(Cl)cc1S2 (stereo unspecified) | 207 to 208 °C
CC(C)[C@H]1CC[C@H](C(=O)N[C@H](Cc2ccc(OCCN(C)c3ccccn3)cc2)C(=O)O)CC1 | 154 to 155 °C
O=C1C2=C(CCCC2)C(=O)N1c1ccc(Cl)c(CO)c1 | 77 to 79 °C
NC(=O)c1ncn(Cc2ccccc2)c1NC(=S)NC(=O)c1ccccc1 | 181 to 182 °C
CNC(=O)C(NC(=O)c1ccc(F)cc1C(F)(F)F)C(O)CSc1cccc(F)c1 (stereo unspecified) | 172 °C
OCC1OC(n2c(S)nc3c(NCc4ccccc4)ncnc32)C(O)C1O (stereo unspecified) | 145 to 148 °C
COc1ccc2[nH]c(C(=O)N3CCC[C@H](C)C3)cc2c1 | 189 to 192 °C
CCOC(=O)C1=C(C)NC(C)=C(C(=O)OCCN)C1c1cccc([N+](=O)[O-])c1 (stereo unspecified) | 137 to 139 °C
CCS(=O)(=O)c1ncc(S(N)(=O)=O)s1 | 129 to 130 °C
O=C(O)c1cn(C2CC2)c2c(F)c(N3CC(CNC(=O)C(F)(F)F)C3)c(F)cc2c1=O | 145 to 150 °C
Cc1cccc(N2CCN(Cc3n[nH]c4ccccc34)CC2)c1 | 132 to 134 °C
CC(=O)N(C)C(Cc1ccccc1N)c1ccccn1 (stereo unspecified) | 103 to 107 °C

Structure (SMILES) | melting point
CCOC(=O)/C=C/c1c(-c2ccccc2)c2cc(C)c(C)cc2c(=O)n1C | 143 to 145 °C
CCn1c(=O)c2cccnc2n(-c2cccc([N+](=O)[O-])c2)c1=O | 210 to 211 °C
CC(=O)Nc1ccc(C(C)(C)C(=O)O)cc1 | 170 to 171 °C
Cc1cc(COc2ccc(S(=O)(=O)NC[C@@H](C(=O)NO)N3CCN(C(=O)OCc4ccccc4)CC3)cc2)c2ccccc2n1 | 162 °C
CN(c1cc(OCCCS(C)(=O)=O)cc2cc(C3=NCC(CN4CCOCC4)S3)[nH]c12)S(=O)(=O)c1ccccn1 (stereo unspecified) | 168 to 169 °C
COc1cc2ncnc(Nc3ccc(F)c(Cl)c3)c2cc1OCC1(C)COC1 | 226 to 227 °C
O=S(=O)(c1ccccc1)n1cnc(-c2ccc(F)cc2)c1-c1ccc(F)cc1 | 172 to 175 °C
Cc1ccc(-c2cncc(OC3SCC(O)C(O)C3O)c2)cc1C (stereo unspecified) | 184 °C
O=C(O)COC1CCN(Cc2ccc3c(c2)Nc2nccnc2S3)CC1 | 204 to 207 °C
O=C(Nc1ccc(N2CCOCC2=O)cc1)[C@H]1C[C@@H](O)CN1C(=O)/C=C/c1ccc(Cl)s1 | 151 °C
COc1ccc(C(O)c2sccc2C=O)cc1OC (stereo unspecified) | 90 to 91 °C
Nc1ccc2[nH]c(CO)cc2c1 | 159 to 160 °C
c1c2c(nc3c1CCCCC3)CCCCC2 | 179 °C
CC1(C)Cc2ccc(C#N)cc2N(C(=O)NCc2ccccc2)C1 | 162 to 163 °C
CON1C(C)(C)CC(OC(=O)c2cc(C(C)(C)C)c(O)c(C(C)(C)C)c2)CC1(C)C | 126 to 128 °C
O=c1cc(-c2ccccc2)oc2ccc(OCCCCCCCN3CCC(O)CC3)cc12 | 135 to 136 °C
Cc1cc(=O)c(-c2ccc(Oc3ccc(Cl)cc3)cc2)c(C)n1O | 232 to 236 °C
O=C(Nc1cccc(O)c1)C(CS)C(F)(F)F (stereo unspecified) | 147 to 151 °C
COc1cccc(-c2cc(C#N)c(SC)[nH]2)c1 | 112 to 113 °C
Cc1ccccc1[PH](=O)c1ccccc1C | 91.3 °C
COc1ccc(-c2nc3cccnc3n2CC(=O)O)cc1 | 260 to 263 °C
O=C(NC1C2CC3CC(C2)CC1C3)C1CCCCN1 (stereo unspecified) | 112 to 114 °C
CCOC(=O)c1c(Cl)nc2cc3c(cc2c1CCl)OCCO3 | > 260 °C
Clc1cccc(C2(Cn3cncn3)OCCO2)c1 | 114 °C
FC(F)(F)c1cc(-c2cccs2)[nH]n1 | 121 °C
Nc1nc(-c2ccccn2)cc2ccccc12 | 152 to 153 °C

Structure (SMILES) | melting point
O=C(O)C(=O)N1CCC(Oc2ccc(Cl)cc2)CC1 | 144 to 145 °C
O=C(c1cc2ccccc2s1)N1CCc2[nH]c3c(cnc4cc(Cl)ccc43)c2C1 | > 250 °C
O=C(Nc1nncs1)C(=O)c1cn(Cc2ccc(F)cc2)c2ccccc12 | 218 to 220 °C
CC(=O)O[C@H]1C[C@@H](n2ccc(=O)cc2)[C@H](O)[C@@H]1O (racemic) | 191 to 196 °C
CC(c1ccc(NC=O)c([N+](=O)[O-])c1)n1ccnc1 (stereo unspecified) | 158 °C
CC(C)(C)OC(=O)N[C@@H](Cc1ccccc1)[C@@H](O)[C@@H](NCc1cccc2ccccc12)C(=O)O | 225 to 227 °C
CCOC(Cc1ccc(OCCN2c3ccccc3Oc3ccccc32)cc1)C(=O)OC (stereo unspecified) | 88 to 90 °C
Oc1ccc(OC[C@@H](O)CNCCc2ccc(-n3c(-c4ccc(C5CCCCC5)cc4)nc4cccnc43)cc2)cc1 | 100 to 102 °C
COc1cccc2c1C13CCN(CC4CC4)C(C2)C1(O)CCC(=O)C3 (stereo unspecified) | 133 to 135 °C
COCc1cnn2c(-c3cccc(C(F)(F)F)c3)ccnc12 | 114 to 116 °C
O=C(COc1cc(-c2ccc([N+](=O)[O-])cc2)nc2cccc(C(F)(F)F)c12)N1CCOCC1 | 222 °C
COc1ccc(S(=O)(=O)N(CC(=O)O)Cc2ccccc2N)cc1 | 145 to 147 °C
CCCc1cc(-c2nc3c(s2)CCCO3)ccc1O | 152 to 154 °C
COc1cccc2c1nc(C(F)F)n2-c1nc(N2CCOCC2)nc2c1ncn2-c1cccnc1 | 206 to 209 °C
CC(=O)SCC(Cc1ccccc1)C(=O)Nc1cc(Cl)ccc1C(=O)O (stereo unspecified) | 143 to 144 °C
CC(=NC(C#N)=C(N)C#N)c1ccc(Cl)cc1 | 154 to 156 °C
CCOC(=O)C1=C(C)N(C(C)=O)C(c2csc(C)n2)=NC1c1ccc(F)cc1 (stereo unspecified) | 140 to 142 °C
CCCCc1nc2c(c(C)c(C)n3nnnc23)n1CC(C)(C)NC(=O)c1ccccc1 | 201 to 204 °C
Cc1cc(Cl)c2c(c1)C=C(/C=C/C=C/C=C/C(=O)O)CO2 | 248 to 250 °C
COC(=O)C(C)(C)c1ccc(C(=O)Nc2cn3cc(C)ccc3n2)cc1 | 228 to 230 °C
CCOC(=O)c1cnc2ccc(Cl)cc2c1Cl | 87 to 88 °C
Cc1ccc([N+](=O)[O-])c(O)c1CCC(C)Br (stereo unspecified) | 67 to 69 °C
CN(C)c1ccc(-c2nc(Cl)c(CC#N)n2Cc2ccccc2)cc1Cl | 142 to 143 °C

Reference: a melting point compilation (Tetko et al.; mined from patent text by program, amines drawn as free bases though some values may be those of a salt)
